Common to all, as to assay type: functional
Experiment [1] deals with Oryctolagus cuniculus. Put plainly: Total percent control of cholesterol after administration in rabbits. Also on record: concentration or dose not given beside the values.
Experiment [2] is filed under the species Oryctolagus cuniculus. Put plainly: Total cholesterol present in New Zealand white rabbits fed with control diet (100 g/day) for seven days.
The test system of experiment [3] is Oryctolagus cuniculus. The experiment is described as follows: Low density lipoprotein (LDL) percent control of cholesterol after administration in rabbits. Also on record: concentration or dose not given beside the values.
Experiment [4] concerns Oryctolagus cuniculus. The experiment is described as follows: High density lipoprotein (HDL) percent control of cholesterol after administration in rabbits. Also on record: concentration or dose not given beside the values.
The species named for experiment [5] is Oryctolagus cuniculus. Put plainly: The compound was tested for antioxidant activity against serum thiobarbituric acid relative substances (TBARS),.
The species named for experiment [6] is Oryctolagus cuniculus. Put plainly: Tested for antioxidant activity against serum thiobarbituric acid relative substances (TBARS),.

With `CC(C)(C)c1cc(OC[Si](C)(C)c2ccc(Cl)cc2)cc(C(C)(C)C)c1O`, the Control in experiment [1] is 87%; in experiment [3] it was 89%; in experiment [4] it was 109%; in experiment [5] it was 57%. This compound came in with an Activity in experiment [2] of 247 mg/dL.

Take `CC(C)(C)c1cc(OC[Si](C)(C)c2ccccc2)cc(C(C)(C)C)c1O`: the Control in experiment [1] came out at 72%; in experiment [3] it was 69%; in experiment [4] it was 81%; in experiment [5] it was 28%. Also, the Activity in experiment [2] was 165 mg/dL.

Turning to `COc1ccccc1[Si](C)(C)COc1cc(C(C)(C)C)c(O)c(C(C)(C)C)c1`, the Control in experiment [1] was 77%; in experiment [3], 61%; in experiment [4], 217%; in experiment [5] it was 75%. The compound further had an Activity in experiment [2] of 235 mg/dL.

Turning to `CC(C)(C)c1cc(SC[Si](C)(C)c2ccccc2)cc(C(C)(C)C)c1O`, the Control stood at 52% in experiment [1], 42% in experiment [3], 75% in experiment [4] and 17% in experiment [6]. Further, in experiment [2], the Activity is 119 mg/dL.

As for `COc1ccc([Si](C)(C)COc2cc(C(C)(C)C)c(O)c(C(C)(C)C)c2)cc1`, the Control in experiment [1] came to 54%; in experiment [3] it was 66%; in experiment [4] it was 123%; in experiment [5], 60%. For the same compound, in experiment [2], the Activity was 153 mg/dL.

Values taken from ChEMBL document CHEMBL1129112, “Antioxidant and cholesterol lowering properties of 2,6-DI-t-butyl-4-[(dimethylphenylsilyl)methyloxy]phenol and derivatives: A new class of anti-atherogenic compounds” (1996).
